Laboratory results as given in patent publication US8852876B2, “Label free biosensors and cells” (Corning Incorporated, priority 2008, dated 2014).
*1 amine or outer side, *2 acyl side, *3 side chain or, on linkers, in order; H or OH if unused. Where a SMILES comes first, the peptide text is derived from it. Bridges are numbered along the chain shown (N, C = ends). [ ]: non-standard residue; d: D form. Trp(2-yl) = O=C([C@H](Cc1c([*:3])[nH]c2ccccc12)N[*:1])[*:2]; Leu(4R-OH,5-OH) = C[C@](O)(CO)C[C@H](N)C(=O)O; cisHyp = O=C(O)[C@@H]1C[C@H](O)CN1

Tests used:
quiescent A431 cells = experiment: GPCR agonist-induced DMR and EGFR transactivation; format: cell-based, human; conditions: bradykinin 100 nM, carbachol 10 μM, clonidine 1 μM
Experimental: (§1) Both A431 and CHO-K1 cells were grown in Dulbecco's modified Eagle's medium (DMEM) supplemented with 10% fetal calf serum, 100 μg/ml penicillin, and 100 μg/ml streptomycin. For cell culture, certain numbers of cells (2×10^5 to 1×10^6), either A431 or CHO-K1, were suspended in […] medium were placed in each well of a 96 well Corning Epic Biosensor microplate, and were cultured at 37° C. in air/5% CO2 for certain time until the cell density reached ˜90% and above (unless specified). The resulted cells were termed as “profilerating” cells. The “quiescent” cells were obtained by culturing the profilerating cells of desired confluencies with a medium containing no or little (˜0.1% fetal bovine serum (FBS)) for at least 16 hours.
(§2) During the assays, the cells in 100 μl medium were subject to two 25 μl HBSS buffer containing 20 mM HEPES, pH 7.4, each separated by at least 15 minutes before 50 μl stimulus-containing solution was applied. During all these steps, a parallel angular interrogation system was used to monitor the real time kinetics of cellular responses. For compound effect studies, a modified protocol was used which starts with 50 μl medium, and subject to sequential treatment: 25 μl HBSS buffer twice (each separated by at least 15 minutes), 50 μl compound solution and finally 50 μl stimulus-containing solution.

[1] = system: EGF-induced response of quiescent A431 cells; experiment: Effect of compound pretreatment on EGF-induced DMR response; format: cell-based, human; conditions: for Effect of pretreatment on 32 nM EGF-induced response: quiescent A431 cells
Experimental: as §1, §2

[2] = system: protease activated receptors PAR1 and PAR2; format: cell-based, human; conditions: 100 or 200 nM trypsin; modulators 10 μM
Experimental: (§3) Human epidermoid carcinoma A431 cells (American Type Cell Culture) were grown in Dulbecco's modified Eagle's medium (DMEM) supplemented with 10% fetal bovine serum (FBS), 4.5 g/liter glucose, 2 mM glutamine, and antibiotics. ˜3-7.5×10^4 cells at passage 3 to 5 suspended in 200 μl the DMEM medium containing 10% FBS were placed in each well of a 96 well microplate, and were cultured at 37° C. under air/5% CO2 until ˜95% confluency was reached (˜2-4 days).
(§4) The compound or PAR agonist solutions were made in 1×HBSS in order to match the refractive index between the cell medium and compound solution, thus minimizing the unwanted effect of bulk index change due to the introduction of compound solution which can temporarily overwhelms any DMR signal as it occurs.

[3] = biological target: T1, protease activated receptors PAR1 and PAR2 (Homo sapiens, UniProt P25116); format: cell-based; conditions: 40 unit/ml thrombin; modulators 10 μM
T1 construct: A431 cells which endogenously express PAR1 and PAR2; endogenous in cells; host or cells: A431
T1 sequence (P25116 22-425): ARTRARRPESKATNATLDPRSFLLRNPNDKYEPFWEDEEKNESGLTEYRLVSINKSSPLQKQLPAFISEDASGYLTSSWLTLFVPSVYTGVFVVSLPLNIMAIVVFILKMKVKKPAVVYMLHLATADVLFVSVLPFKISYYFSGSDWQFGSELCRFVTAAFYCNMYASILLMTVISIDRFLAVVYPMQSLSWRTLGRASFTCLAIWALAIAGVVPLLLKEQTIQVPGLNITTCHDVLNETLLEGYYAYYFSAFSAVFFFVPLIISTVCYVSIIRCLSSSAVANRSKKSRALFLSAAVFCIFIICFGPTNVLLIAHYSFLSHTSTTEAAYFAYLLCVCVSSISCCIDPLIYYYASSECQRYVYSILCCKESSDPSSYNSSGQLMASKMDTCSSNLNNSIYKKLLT
Experimental: as §3, §4

CHO cells [4] = experiment: Saponin-permeabilized cell assay for cytoskeleton modulators (LID biosensor); format: cell-based, Chinese hamster; conditions: saponin 67 ug/ml
From the text: The method involves the use of pore-forming reagents (e.g, saponin) to generate permeabilized cells which permit soluble proteins to diffuse away. It is known that treatment of the cells with many pore-forming reagents leads to permeabilized cells. Since intracellular macromolecules are highly organized within the cytoplasm of mammalian cells through direct binding to cytoskeletal elements, the permeabilized cells still retain most of the biological functions of living cells by sequestration of intracellular machinery through the cytoskeleton super-assembled structure, although the saponin-treated cells undergo the loss of some portions of biomacromolecules. However, upon disruption of microfilaments there is a dramatic reduction of protein synthesis accompanied by release of these translation components from the cells. Also, many other sequestered biomacromolecules are released from these permeabilized cells after disrupting the cytoskeleton structure. These further released materials from the permeabilized cells result in the loss in mass; thus resulting in the changes in effective refractive index of the cell layer on the surface of a LID biosensor which can be detected by LID biosensors. Thus, the changes obtained using optical biosensors can be used as an indicator of modulators that interfere with the cytoskeleton structure. In one embodiment, the present methods can be used to screen modulators that interfere with the cytoskeleton structure using the method 2500 shown in FIG. 25. In accordance with method 2500 one can monitor the mass redistribution due to pore formation of cell surface membranes induced by pore-forming reagents such as saponin in living cells 1008 by: (a) providing an optical LID biosensors 1004 (step 2502); (b) placing cells 1008 in a cell medium onto the said sensor 1004 (step 2504); (c) Optionally applying a buffer solution (step 2506); (d) applying a solution containing a compound into the cell mediums located on the top surfaces 1010 of covered optical LID biosensors 1004 (step 2508); applying a solution containing a pore-forming reagent (step 2510); and (e) interrogating the covered optical LID biosensors 1010 to monitor the time dependent optical responses which indicate mass redistributions within the permeabilized cells 1008 (step 2512). A Pore-forming reagent is a chemical or biological compound or composition that can result in the formation of pores in cell surface membranes when the cells are exposed to the reagent.
The pore-forming regents include detergents such as saponin and filipin, or toxin such as digitonin or streptolysin O. It is well known that treatment of the cells with these reagents can result in the pore formation in cell surface membrane; the resulted permeabilized cells can release a certain amount of intracellular material, mainly soluble proteins. However, there are a great number of bio-materials that still stay with these permeabilized cells due to the sequestration by directly binding or association with the cytoskeleton structure. As a matter of fact, these permeabilized cells retain many of the biological functions of living cells such as protein synthesis.
FIG. 50 presents the dose-dependent responses of CHO cells adherent on the surface of a LID sensor in response to saponin as a function of time. After the addition of saponin at different concentrations, a different response is evident. At low concentration, there is almost no response. […]

CHO cells [5] = experiment: GPCR agonist-induced mass redistribution (optical LID); format: cell-based, Chinese hamster
From the text: These translocations can be located on a surface of an optical LID biosensor as disclosed herein. The particular data shown in FIGS. 52-60 was obtained using an optical waveguide grating sensor system and LID microplates (Nb2O5 plates), manufactured by Corning Incorporated. […] It is known that CHO cells 1008 endogenously express beta adrenergic receptors, alpha2-adrenergic receptors, P2Y receptors, as well as beta-arrestin and GRKs. It is also known that muscarinic receptors are endogenously expressed at very low level in the CHO cells 1008. In this experiment, approximately ˜5×10^4 CHO cells 1008 were placed within each well of a microplate that contained an array of optical LID biosensors 1004. The CHO cells 1008 were then cultured in 150 μl serum medium for 24 hours to ensure that the CHO cells 1008 became adherent to the substrate surface 1010. […] Since muscarinic receptors are endogenously expressed at very low level in CHO cells, oxotremorine M, agonist for muscarinic receptors, served as a control. Each of these agonists was directly applied to a different one of the wells which contained the serum medium. The optical responses were then collected by the optical LID system.

[6] = biological target: T2, rat muscarinic receptor subtype 1 (Rattus norvegicus, UniProt P08482); experiment: GPCR agonist-induced mass redistribution in M1 CHO cells (optical LID); format: cell-based
T2 construct: expressed in transfected cells; host or cells: CHO (M1 CHO)
T2 sequence (P08482 1-460): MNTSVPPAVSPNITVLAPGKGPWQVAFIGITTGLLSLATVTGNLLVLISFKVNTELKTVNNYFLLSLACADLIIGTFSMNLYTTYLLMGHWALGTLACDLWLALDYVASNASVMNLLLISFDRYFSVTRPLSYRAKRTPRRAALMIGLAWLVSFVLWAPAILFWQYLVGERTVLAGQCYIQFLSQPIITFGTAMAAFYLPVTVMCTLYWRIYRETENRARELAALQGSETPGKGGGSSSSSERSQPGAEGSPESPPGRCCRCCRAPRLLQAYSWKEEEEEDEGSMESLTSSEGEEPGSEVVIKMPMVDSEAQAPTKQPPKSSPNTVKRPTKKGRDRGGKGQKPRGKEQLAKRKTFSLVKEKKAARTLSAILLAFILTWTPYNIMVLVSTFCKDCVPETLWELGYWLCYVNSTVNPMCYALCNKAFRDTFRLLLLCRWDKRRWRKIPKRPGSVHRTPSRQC

With `C[N+](C)(C)CCOC(N)=O` [Carbachol, carbachol] the “GPCR agonist-induced DMR response curve” value (quiescent A431 cells) was “responses with almost identical features as those induced by low concentrations (2-8 nM) of EGF”.
`C[C@@H]1NC(=O)[C@H](C[C@@](C)(O)CO)NC(=O)[C@@H]2Cc3c([nH]c4ccccc34)SC[C@H](NC(=O)[C@@H]([C@H](C)O)NC1=O)C(=O)N1C[C@@H](O)C[C@H]1C(=O)N[C@@H](C)C(=O)N2` [phalloidin] (cyclo(A[dT]C[cisHyp]A[Trp(2-yl)][Leu(4R-OH,5-OH)]); thioether 3-6) was tested, and the “Effect of pretreatment on 32 nM EGF-induced response” value [1] was “hardly any effect on the EGF-induced response”, the “Effect of pretreatment on trypsin-mediated DMR signal” value [2] was “neither a stabilizing polymeric F-actin agent phalloidin nor a microtubule disrupter nocodazole had significant effect” and the “Effect of pretreatment on thrombin-mediated DMR signal” value [3] was “neither a stabilizing polymeric F-actin agent phalloidin nor a microtubule disrupter nocodazole had significant effect”. For the same compound, the “Effect of compound pre-treatment on saponin-induced response (loss of biomaterials)” value (shortened to “Effect … (loss of biomaterials)”) (CHO cells [4]) was “delay the loss of biomaterials in saponin-treated cells”.
With `CC[C@]1(O)C[C@@H]2CN(CCc3c([nH]c4ccccc34)[C@@](C(=O)OC)(c3cc4c(cc3OC)N(C)[C@H]3[C@@](O)(C(=O)OC)[C@H](OC(C)=O)[C@]5(CC)C=CCN6CC[C@]43[C@@H]65)C2)C1` [vinblastine] the “Effect of pretreatment on 32 nM EGF-induced response” value [1] was “hardly any effect on the EGF-induced response” and the “Effect … (loss of biomaterials)” value (CHO cells [4]) was “block the saponin-induced loss of biomaterials from the cells”.
For `C=C1[C@@H](C)[C@H]2[C@H](Cc3ccccc3)NC(=O)[C@]23OC(=O)/C=C/[C@H](O)CCC[C@@H](C)C/C=C/[C@H]3[C@@H]1O` [cytochalasin B], the “Effect of pretreatment on 32 nM EGF-induced response” value [1] was “totally abolished the N-DMR signal”, the “Effect of pretreatment on trypsin-mediated DMR signal” value [2] was “much less effective in suppressing the responses” and the “Effect of pretreatment on thrombin-mediated DMR signal” value [3] was “much less effective in suppressing the responses”. The “Effect … (loss of biomaterials)” value (CHO cells [4]) was “cause increased loss of biomaterials”.
For dynamin inhibitory peptide [DIP], the “Effect of pre-incubation on NECA-induced response” value (CHO cells [5]; DIP 50 μM, 45 minutes, NECA 10 μM, CHO) was “little effect on NECA-induced response”, the “Effect of pre-incubation on clonidine-induced response” value (CHO cells [5]; DIP 50 μM, 45 minutes, clonidine 10 μM, CHO) was “almost totally eliminates the clonidine-induced mass distribution response” and the “Effect of pre-incubation on oxotremorine M-induced response” value (CHO cells [5]; DIP 50 μM, 45 minutes, oxotremorine M 10 μM, CHO) was “almost totally eliminates the oxotremorine M-induced mass distribution responses in both cell lines”. The “Effect of pre-treatment on EGF-induced P-DMR and N-DMR signals” value ([1]; starved A431 cells, 8 nM EGF, 30-minute pretreatment, GH 0.5 ng/ml, PD98059 0.1 mM, PP1 1 μM, wortmannin 0.1 μM, DIP 50 μM) was “totally blocks the N-DMR signal, but slightly increases the P-DMR signal with much slower kinetics”, the “Increase of total P-DMR signal in presence vs absence of compound” value ([1]; starved A431 cells, EGF, DIP 50 μM) was 50% and the “Effect of pre-incubation on NECA-induced response” value ([6]; DIP 50 μM, 45 minutes, NECA 10 μM, M1 CHO) was “little effect on NECA-induced response”. For the same compound, the “Effect of pre-incubation on clonidine-induced response” value ([6]; DIP 50 μM, 45 minutes, clonidine 10 μM, M1 CHO) was “almost totally eliminates the clonidine-induced mass distribution response”, the “Effect of pre-incubation on oxotremorine M-induced response” value ([6]; DIP 50 μM, 45 minutes, oxotremorine M 10 μM, M1 CHO) was “almost totally eliminates the oxotremorine M-induced mass distribution responses in both cell lines” and the “Effect … (loss of biomaterials)” value (CHO cells [4]) was “show no effect on a saponin-induced response”.
`C[C@H]1CCC/C=C/[C@@H]2C[C@H](O)C[C@H]2[C@H](O)/C=C/C(=O)O1` [brefeldin A] was tested, and the “Effect … (loss of biomaterials)” value (CHO cells [4]) was “show no effect on a saponin-induced response”.
`C[N+](C)(C)CC#CCN1CCCC1=O` [oxotremorine M] was tested, and the Agonist-induced optical response (CHO cells [5]; ATP 100 μM, clonidine 10 μM, epinephrine 100 μM, oxotremorine M 10 μM) was “caused almost no cell response” and the “Ligand-induced response in M1-CHO cells” value ([6]; 10 μM, compared with CHO cells) was “significantly larger responses in M1-CHO cells”.
